Data from US20210002231A1 (Centre National de la Recherche Scientifique, priority 2018, published 2021).
Starred links: 1 amine or outer side, 2 acyl side, 3 side chain; linkers in the order of their positions; H or OH if unused. Non-standard residues stand in square brackets, D forms with d. Residues, ends and D or L forms follow the SMILES beside them. *: point of attachment. Nva(5-(4-Bn-piperidin-1-yl)) = N[C@@H](CCCN1CCC(Cc2ccccc2)CC1)C(=O)O; X1 = O=C1[C@@H](N[*:1])Cc2ccccc2CN1CCC(=O)[*:2]; Dmt = Cc1cc(O)cc(C)c1C[C@H](N)C(=O)O; X3 = c1ccc2oc(*)nc2c1

Key:
NPFF2R [1] = target: T1, NPFF2R (Homo sapiens, UniProt Q9Y5X5); test: Radioligand competition binding with [125I]-1-DMe-NPFF; parameters: expressed in transfected cells; HEK293-Glo20F cells (cAMP)
T1 sequence (Q9Y5X5 whole entry): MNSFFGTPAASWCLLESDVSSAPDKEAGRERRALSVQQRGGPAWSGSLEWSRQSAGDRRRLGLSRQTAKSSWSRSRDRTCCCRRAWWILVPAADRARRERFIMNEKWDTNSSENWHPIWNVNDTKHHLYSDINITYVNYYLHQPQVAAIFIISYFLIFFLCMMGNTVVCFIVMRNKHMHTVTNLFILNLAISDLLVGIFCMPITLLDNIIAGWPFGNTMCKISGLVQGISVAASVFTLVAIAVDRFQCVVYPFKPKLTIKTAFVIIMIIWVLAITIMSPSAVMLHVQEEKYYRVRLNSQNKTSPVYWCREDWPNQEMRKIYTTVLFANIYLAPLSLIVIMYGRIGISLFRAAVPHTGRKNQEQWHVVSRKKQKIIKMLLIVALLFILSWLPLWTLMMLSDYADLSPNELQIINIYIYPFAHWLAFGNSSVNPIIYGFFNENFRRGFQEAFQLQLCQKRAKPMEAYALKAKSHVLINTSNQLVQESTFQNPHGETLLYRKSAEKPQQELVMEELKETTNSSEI

human MOPr [2] = target: T2, human MOPr (Homo sapiens, UniProt P35372); test: cell-based; assay type: cell-based; parameters: expressed in transfected cells; HEK293-Glo20F cells (cAMP); conditions: for EC50: read-out: MOPr (cAMP) EC50; for Emax: read-out: MOPr (cAMP) Emax
T2 sequence (P35372 whole entry): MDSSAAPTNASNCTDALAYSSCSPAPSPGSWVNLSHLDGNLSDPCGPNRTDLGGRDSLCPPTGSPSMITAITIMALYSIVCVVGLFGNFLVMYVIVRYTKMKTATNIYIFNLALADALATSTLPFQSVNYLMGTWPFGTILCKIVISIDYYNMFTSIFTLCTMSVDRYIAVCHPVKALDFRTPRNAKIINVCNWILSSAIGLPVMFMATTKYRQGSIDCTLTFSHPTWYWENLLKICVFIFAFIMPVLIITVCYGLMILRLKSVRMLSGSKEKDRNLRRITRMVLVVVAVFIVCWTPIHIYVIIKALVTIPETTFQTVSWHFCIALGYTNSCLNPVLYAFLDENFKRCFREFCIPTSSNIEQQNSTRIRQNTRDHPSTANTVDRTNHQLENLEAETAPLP
Experimental: (§1) Stimulation by endogenous RF-amide peptides or test compounds for [^35S]-GTPγS binding to membranes from CHO cells expressing human NPFF1R or NPFF2R, were examined as reported. 1.6. Glo-Sensor cAMP Assay cAMP accumulation assay was essentially done as described with the following modifications: HEK293 cells stably expressing cAMP Glosensor-20F were used, with or without additional stable expression of each individual opioid receptor or NPFF1R. The cAMP responses were measured in presence of D-luciferin (1 mM).

human NPFF1R [3] = target: T3, human NPFF1R (Homo sapiens, UniProt Q9GZQ6); test: Radioligand competition binding with [125I]-1-DMe-NPFF; parameters: expressed in transfected cells; HEK293-Glo20F cells (cAMP)
T3 sequence (Q9GZQ6 whole entry): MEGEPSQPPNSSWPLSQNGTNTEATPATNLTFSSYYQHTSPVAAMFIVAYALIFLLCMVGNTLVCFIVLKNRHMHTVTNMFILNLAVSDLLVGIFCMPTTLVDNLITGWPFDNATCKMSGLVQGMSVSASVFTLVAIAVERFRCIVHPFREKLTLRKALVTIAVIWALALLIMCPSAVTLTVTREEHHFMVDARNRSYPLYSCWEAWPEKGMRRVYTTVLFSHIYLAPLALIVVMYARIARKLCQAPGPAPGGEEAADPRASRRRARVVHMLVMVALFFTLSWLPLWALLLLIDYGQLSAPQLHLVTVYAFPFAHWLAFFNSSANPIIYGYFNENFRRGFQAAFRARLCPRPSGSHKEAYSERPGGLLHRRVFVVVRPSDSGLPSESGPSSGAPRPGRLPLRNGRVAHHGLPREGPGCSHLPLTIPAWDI

human MOPr [4] = target: T2, human MOPr; test: BRET1 β-arrestin-2 recruitment assay; assay type: cell-based; parameters: expressed in transfected cells; host or cells: HEK293 cells stably expressing eYFP-β-arrestin-2, transiently transfected with the Rluc8-MOP plasmid;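 for MOPr (β-arrestin-2) Emax: Emax relative to maximal DAMGO-induced BRET as 100%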
Experimental: Peak response amplitudes were normalized to basal and maximal (cells permeabilized with 20 μM digitonin) fluorescence levels. 1.8. β-Arrestin-2 recruitment assay The β-arrestin-2 recruitment assay was performed as described [34; 45] with minor modifications. Briefly, two days prior the experiment, HEK293 cells stably expressing eYFP-tagged β-arrestin-2 were transfected with the plasmid encoding Rluc8-MOP receptor. β-Arrestin-2 recruitment was measured at 37° C. in presence of 5 μM Coelenterazine H, 5 min after agonist addition.

NPFF2R [5] = target: T1, NPFF2R; test: Glo-sensor cAMP assay, agonist and antagonist mode; assay type: cell-based; parameters: expressed in transfected cells; HEK293-Glo20F cells (cAMP); conditions: evaluated at 0.5 and 5 μM
human MOPr [6] = target: T2, human MOPr; test: Radioligand competition binding with [3H]-diprenorphine; parameters: expressed in transfected cells; HEK293-Glo20F cells (cAMP)
human NPFF1R [7] = target: T3, human NPFF1R; test: [35S]-GTPγS binding assay; assay type: biochemical; parameters: expressed in transfected cells; conditions: for Emax: relative to RFRP3
Experimental: as §1

NPFF2R [8] = target: T1, NPFF2R; test: [35S]-GTPγS binding assay; assay type: biochemical; parameters: expressed in transfected cells
Experimental: as §1

[9] = Table 3a, HEK293-Glo20F-hMOPr cells
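Throughout, for MOPr (cAMP) Emax: Emax relative to DAMGO as 100%.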

Compound	IC50 (NPFF2R [1]) [nM]	EC50 (human MOPr [2]; Table 3B) [nM]	Emax (human MOPr [2]) [%]	IC50 (human NPFF1R [3]) [nM]	EC50 (human MOPr [4]; Table 3B, — = non-detectable recruitment, read-out: MOPr (β-arrestin-2) EC50) [nM]	Emax (human MOPr [4]; read-out: MOPr (β-arrestin-2) Emax) [%]	NPFF2R (cAMP) Agonist mode (NPFF2R [5])	Ki (NPFF2R [1]) [nM]	Ki (human MOPr [6]) [nM]	EC50 (human NPFF1R [7]) [nM]	Emax (human NPFF1R [7]) [%]	EC50 (NPFF2R [8]) [nM]	Emax (NPFF2R [8]) [%]	EC50 (human MOPr [2]; [9]) [nM]	Ki (human NPFF1R [3]) [nM]
Cc1cc(O)cc(C)c1C[C@H](N)C(=O)N[C@H](CCCNC(=N)N)C(=O)N[C@H]1Cc2ccccc2CN(CCC(=O)N[C@@H](CCCN2CCC(Cc3ccccc3)CC2)C(=O)N[C@H](C(N)=O)C(C)C)C1=O [DP0001, H-Dmt-D-Arg-Aba-β-Ala-Bpa-Val-NH2] (H-[Dmt][dR][X1][Nva(5-(4-Bn-piperidin-1-yl))]V-NH2)	< 50	16.9 ± 8.3	124	~500	101	52	Partial								
Cc1cc(O)cc(C)c1C[C@H](N)C(=O)N[C@H](CCCNC(=N)N)C(=O)N[C@H]1Cc2ccccc2CNC1=O [KGFF12, H-Dmt-D-Arg-Aba-NH]			103 ± 4					375 ± 108	0.17 ± 0.05	> 10000	13 ± 3	> 10000	32 ± 17	2.7 ± 1.5	2490
Cc1cc(O)cc(C)c1C[C@H](N)C(=O)N[C@@H](CCCNC(=N)N)C(=O)N[C@@H](Cc1ccccc1)C(N)=O [KGFF06, H-Dmt-Arg-Phe-NH2] (HELM PEPTIDE1{[Cc1cc(O)cc(C)c1C[C@H](N)C(=O)[*:2]].R.F.[am]}$$$$V2.0)								15.9 ± 1.8	46 ± 22					2300	147 ± 20
Cc1cc(O)cc(C)c1C[C@H](N)C(=O)N[C@H](CCCNC(=N)N)C(=O)N[C@H]1Cc2ccccc2CN(CCC(=O)N[C@@H](CCCN2CCCCC2)C(=O)N[C@@H](Cc2ccccc2)C(N)=O)C1=O [KGFF08, H-Dmt-D-Arg-Aba-β-Ala-Apa-Phe-NH2]			102 ± 3					3.9 ± 0.1	0.94 ± 0.19		23 ± 1	574 ± 129	97 ± 2	9.9 ± 2	
Cc1cc(O)cc(C)c1C[C@H](N)C(=O)N[C@H](CCCNC(=N)N)C(=O)N[C@H]1Cc2ccccc2CN(CCC(=O)N[C@@H](CCCCNc2nc3ccccc3o2)C(=O)N[C@@H](Cc2ccccc2)C(N)=O)C1=O [KGFF15, H-Dmt-D-Arg-Aba-β-Ala-Lys(Box)-Phe-NH2] (H-[Dmt][dR][X1]K(X3)F-NH2)			92 ± 13					9.6 ± 0.6	1.8 ± 0.9	1020	51 ± 5	930 ± 210	105 ± 15	4.1 ± 1.7	88 ± 8
Cc1cc(O)cc(C)c1C[C@H](N)C(=O)N[C@H](CCCNC(=N)N)C(=O)N[C@H]1Cc2ccccc2CN(CC(=O)N[C@@H](CCCNC(=N)N)C(=O)N[C@@H](Cc2ccccc2)C(N)=O)C1=O [KGFF01, H-Dmt-D-Arg-Aba-Gly-Arg-Phe-NH2]			101 ± 7					1.2 ± 0.5	0.59 ± 0.21	155 ± 25	44 ± 8	128 ± 23	95 ± 6	2.4 ± 1	57 ± 10
Cc1cc(O)cc(C)c1C[C@H](N)C(=O)N[C@H](CCCNC(=N)N)C(=O)N[C@@H](Cc1ccccc1)C(=O)N[C@@H](CCCN)C(=O)N[C@@H](Cc1ccccc1)C(N)=O [KGFF05, H-Dmt-D-Arg-Phe-Orn-Phe-NH2] (HELM PEPTIDE1{[Cc1cc(O)cc(C)c1C[C@H](N)C(=O)[*:2]].[dR].F.[Orn].F.[am]}$$$$V2.0)			94 ± 2					360 ± 50	3.2 ± 1.1					59.3 ± 24.5	3100
Cc1cc(O)cc(C)c1C[C@H](N)C(=O)N[C@H](CCCNC(=N)N)C(=O)N[C@@H](Cc1ccccc1)C(N)=O [KGFF07, H-Dmt-D-Arg-Phe-NH2] (HELM PEPTIDE1{[Cc1cc(O)cc(C)c1C[C@H](N)C(=O)[*:2]].[dR].F.[am]}$$$$V2.0)			102 ± 2					84 ± 26	0.29 ± 0.13	87 ± 7	84 ± 8	1930	87 ± 2	1.7 ± 0.4	11.8 ± 3.6
